Data reported in patent US20170037086A1, “PEPTIDOMIMETIC MACROCYCLES WITH PTH ACTIVITY” (AILERON THERAPEUTICS, INC., priority 2014, published 2017).
Values joined by “and” are separate entries in the source; they are usually repeats but may differ in a detail not shown here. Identical values can stand only once. Positions of bridges follow the written chain, without caps; N, C: chain ends. Non-standard residues stand in square brackets, D forms with d. hArg = N=C(N)NCCCC[C@H](N)C(=O)O; S5 = C=CCCC[C@](C)(N)C(=O)O

Key:
[1] = test system: PTH (1-34) induced hypercalcemia; experiment: TPTx rat model of PTH (1-34) induced hypercalcemia; type: in vivo; conditions: for Ionized calcium, Avg. / Total calcium, Avg. / Ionized calcium, individual animals / Total calcium, individual animals: Group 2 Vehicle/PTH; for Ionized calcium, Avg. / Total calcium, Avg.: TPTx rats, PTH 1.25 μg/kg/h IV infusion
Description: PTH Antagonist in a TPTx Rat Model of PTH (1-34) Induced Hypercalcemia
Experiments were conducted assess the effect of a PTH antagonist SP#63 in a thyroparathyroidectomized (TPTx) rat model of PTH (1-34) induced hypercalcemia. Thyroid hormone was given as supportive therapy prior to start of PTH infusion.
SP#63 or the vehicle for SP#63 was administered as an intravenous (IV) bolus in PTH infused thyroparathyroidectomized (TPTx) Sprague-Dawley rats. SP#63 was administered at 0.925 mg/kg and 1.850 mg/kg, 1 to 3 min before the initiation of the IV infusion. PTH (administered at 1.25 μg/kg/h) or the vehicle for PTH were infused via a femoral catheter over a period of 6 hours at a rate of 1 mL/kg/h. Total and ionized calcium were measured from blood samples collected at 0, 2, 4 and 6 hours during the IV infusion.

PTH receptor type 2 = PTH receptor type 2 (UniProt P49190 25-550, limits assumed); experiment: cell-based or functional assay
human PTH1 receptor = biological target: T1, human PTH1 receptor (human, UniProt Q03431 27-593); experiment: cell-based or functional assay
T1 sequence (looked up): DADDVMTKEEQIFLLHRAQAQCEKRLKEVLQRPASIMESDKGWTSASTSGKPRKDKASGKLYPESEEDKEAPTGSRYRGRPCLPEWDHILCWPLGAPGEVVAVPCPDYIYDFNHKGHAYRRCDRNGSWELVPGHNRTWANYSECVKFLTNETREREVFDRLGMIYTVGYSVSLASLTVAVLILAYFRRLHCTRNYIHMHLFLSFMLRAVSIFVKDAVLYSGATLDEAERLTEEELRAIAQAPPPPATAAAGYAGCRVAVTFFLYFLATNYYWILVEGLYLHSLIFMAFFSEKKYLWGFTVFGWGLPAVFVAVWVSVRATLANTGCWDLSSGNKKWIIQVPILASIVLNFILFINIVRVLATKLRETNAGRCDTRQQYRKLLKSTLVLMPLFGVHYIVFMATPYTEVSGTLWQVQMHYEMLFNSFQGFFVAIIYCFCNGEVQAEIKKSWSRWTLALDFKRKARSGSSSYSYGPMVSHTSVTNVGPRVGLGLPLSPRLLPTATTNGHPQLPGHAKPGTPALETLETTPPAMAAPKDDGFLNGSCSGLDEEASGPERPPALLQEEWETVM

Chain of PTH receptor type 2 (P49190 25-550 limits assumed): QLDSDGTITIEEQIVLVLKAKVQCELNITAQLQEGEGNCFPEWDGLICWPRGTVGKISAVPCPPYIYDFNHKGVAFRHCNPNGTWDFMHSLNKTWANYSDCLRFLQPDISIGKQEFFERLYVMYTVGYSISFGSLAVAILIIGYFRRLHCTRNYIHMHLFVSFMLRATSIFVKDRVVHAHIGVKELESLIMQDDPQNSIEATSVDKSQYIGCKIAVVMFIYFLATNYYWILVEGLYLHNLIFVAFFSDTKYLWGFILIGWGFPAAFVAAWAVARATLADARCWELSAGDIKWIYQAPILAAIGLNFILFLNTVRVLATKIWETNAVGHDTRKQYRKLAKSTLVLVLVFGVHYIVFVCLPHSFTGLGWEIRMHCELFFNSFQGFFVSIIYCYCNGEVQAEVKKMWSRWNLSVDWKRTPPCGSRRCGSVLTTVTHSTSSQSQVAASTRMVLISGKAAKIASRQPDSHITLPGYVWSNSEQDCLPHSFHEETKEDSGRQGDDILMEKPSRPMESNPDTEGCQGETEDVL

PTH (1-34)
Ionized calcium, Avg. ([1]; 2 h): 4.13 mg/dL | Total calcium, Avg. ([1]; 2 h): 8.28 mg/dL | Ionized calcium, Avg. ([1]; 4 h): 4.62 mg/dL | Total calcium, Avg. ([1]; 4 h): 9.14 mg/dL | Ionized calcium, Avg. ([1]; 6 h): 4.99 mg/dL | Total calcium, Avg. ([1]; 6 h): 9.92 mg/dL | Ionized calcium, Avg. ([1]; time 0): 3.36 mg/dL | Total calcium, Avg. ([1]; time 0): 7.22 mg/dL | Ionized calcium, individual animals ([1]; animals 2001-2005, 2 h): 4.08 mg/dL and 3.27 mg/dL and 4.85 mg/dL and 4.68 mg/dL and 3.75 mg/dL | Total calcium, individual animals ([1]; animals 2001-2005, 2 h): 8.2 mg/dL and 6.6 mg/dL and 9.8 mg/dL and 9.3 mg/dL and 7.5 mg/dL | Ionized calcium, individual animals ([1]; animals 2001-2005, 4 h): 4.58 mg/dL and 3.88 mg/dL and 5.29 mg/dL and 5.02 mg/dL and 4.34 mg/dL | Total calcium, individual animals ([1]; animals 2001-2005, 4 h): 9.1 mg/dL and 7.6 mg/dL and 10.5 mg/dL and 9.8 mg/dL and 8.7 mg/dL | Ionized calcium, individual animals ([1]; animals 2001-2005, 6 h): 5.06 mg/dL and 4.15 mg/dL and 5.71 mg/dL and 5.23 mg/dL and 4.79 mg/dL | Total calcium, individual animals ([1]; animals 2001-2005, 6 h): 10.1 mg/dL (2×) and 8.3 mg/dL and 11.4 mg/dL and 9.7 mg/dL | Ionized calcium, individual animals ([1]; animals 2001-2005, time 0): 3.21 mg/dL and 3.07 mg/dL and 4.01 mg/dL and 3.16 mg/dL | Total calcium, individual animals ([1]; animals 2001-2005, time 0): 6.7 mg/dL and 6.4 mg/dL and 8.4 mg/dL and 8.3 mg/dL and 6.3 mg/dL | ionized calcium at 6 h ([1]; PTH infusion 1.25 μg/kg/h with vehicle for SP#63, 3.36 mg/dL at 0 h): 4.99 mg/dL | total calcium at 6 h ([1]; PTH infusion 1.25 μg/kg/h with vehicle for SP#63, 7.22 mg/dL at 0 h): 9.92 mg/dL

BIM-44002 (peptide)
calcium flux IC50 (PTH receptor type 2): > 10 µM

TIP-39 (from UniProt Q96A98 62-100) (ligand)
calcium flux, EC80 (PTH receptor type 2): 4.1 nM

B1: SP# 246 (peptide)
peptide: H-LLHQRA[S5]WIQ[S5]LRRR[S5]WLR[S5]KLQDVHNF-NH2
modifications: staple 7-11, 16-20
IC50, SaOS-2 cAMP with PTH[1-84] or PTHrP[1-34] as ligand (human PTH1 receptor): < 10 nM

B2: SP# 226 (peptide)
peptide: H-LLH[S5]RAK[S5]IQDLRRRFW[S5]HHL[S5]AEIHTA-NH2
modifications: staple 18-22, 4-8
IC50, SaOS-2 cAMP with PTH[1-84] or PTHrP[1-34] as ligand (human PTH1 receptor): < 10 nM

B3: SP# 245 (peptide)
peptide: H-LLHQRA[S5]WIQ[S5]LRRREW[S5]RKK[S5]QDVHNF-NH2
modifications: staple 7-11, 18-22
IC50, SaOS-2 cAMP with PTH[1-84] or PTHrP[1-34] as ligand (human PTH1 receptor): < 10 nM

B4: SP# 232 (peptide)
peptide: H-LL[S5]QRA[S5]WIQD[S5]RRR[S5]WLHHLIAEIHTA-NH2
modifications: staple 12-16, 3-7
IC50, SaOS-2 cAMP with PTH[1-84] or PTHrP[1-34] as ligand (human PTH1 receptor): < 10 nM

B5: SP# 247 (peptide)
peptide: H-LLHQRAKWIQD[S5]RRR[S5]WLRKKLQDVHNF-NH2
modifications: staple 12-16
IC50, SaOS-2 cAMP with PTH[1-84] or PTHrP[1-34] as ligand (human PTH1 receptor): < 10 nM

B6: SP# 228 (peptide)
peptide: H-LL[S5]QRA[S5]WIQDLRRRFW[S5]HHL[S5]AEIHTA-NH2
modifications: staple 18-22, 3-7
IC50, SaOS-2 cAMP with PTH[1-84] or PTHrP[1-34] as ligand (human PTH1 receptor): < 10 nM

B7: SP# 67 (peptide)
peptide: H-LLHQ[hArg]AK[S5]IQD[S5]RRR[S5]WLH[S5]LIAEIHTAEY-NH2
modifications: staple 8-12, 16-20
calcium flux IC50 (PTH receptor type 2): < 10 µM
